System: sodium channel
Assay: Guanidine influx assay (14C-guanidine radiotracer flux) in a known cell line that expresses a sodium channel
Format: cell-based, human or rat
Description: This example describes an in vitro assay for testing and profiling test agents against human or rat sodium channels stably expressed in cells of either an endogenous or recombinant origin.
The guanidine influx assay is a radiotracer flux assay used to determine ion flux activity of sodium channels in a high-throughput microplate-based format. The assay uses ^14C-guanidine hydrochloride in combination with various known sodium channel modulators, to assay the potency of test agents. Potency is determined by an IC50 calculation. Selectivity is determined by comparing potency of the compound for the channel of interest to its potency against other sodium channels (also called ‘selectivity profiling’).
Each of the test agents is assayed against cells that express the sodium channel of interest. Voltage gated sodium channels are either TTX sensitive or insensitive. This property is useful when evaluating the activities of a channel of interest when it resides in a mixed population with other sodium channels. The following Table 1 lists certain cell lines which are useful in screening for a certain sodium channel activity in the presence or absence of TTX.
It is also possible to employ recombinant cells expressing these sodium channels.
Cells expressing the channel of interest are grown according to the supplier or in the case of a recombinant cell in the presence of selective growth media such as G418 (Gibco/Invitrogen). The cells are disassociated from the culture dishes with an enzymatic solution (1×) Trypsin/EDTA (Gibco/Invitrogen) and analyzed for density and viability using haemocytometer (Neubauer). Disassociated cells are washed and resuspended in their culture media then plated into Scintiplates (Beckman Coulter Inc.) (approximately 100,000 cells/well) and incubated at 37° C./5% CO2 for 20-24 hours. After an extensive wash with Low sodium HEPES-buffered saline solution (LNHBSS) (150 mM Choline Chloride, […] (Sigma), 1 mM Calcium Chloride, 5 mM Potassium Chloride, 1 mM Magnesium Chloride, 10 mM Glucose) agents diluted with LNHBSS are added to each well. (Varying concentrations of test agent may be used). The activation/radiolabel mixture contains aconitine (Sigma), and ^14C-guanidine hydrochloride (ARC).
After loading the cells with test agent and activation/radiolabel mixture, the Scintiplates are incubated at ambient temperature. Following the incubation, the Scintplates are extensively washed with LNHBSS supplemented with guanidine (Sigma). The Scintiplates are dried and then counted using a Wallac MicroBeta TriLux (Perkin-Elmer Life Sciences). The ability of the test agent to block sodium channel activity is determined by comparing the amount of ^14C-guanidine present inside the cells expressing the different sodium channels.
IC50 value of a test agent for a specific sodium channel may be determined using the above general method. […] The IC50 curve is calculated using the 4 Parameter Logistic Model or Sigmoidal Dose-Response Model formula (fit=(A+((B−A)/(1+((C/x)^D)))).
The fold selectivity, factor of selectivity or multiple of selectivity, is calculated by dividing the IC50 value of the test sodium channel by the reference sodium channel, for example, Nav1.5.
The Example numbers provided in Table 2 correspond to the Example numbers herein: […]

`O=C(O)CN1C(=O)C2(COc3cc4c(cc32)OCO4)c2ccccc21` (centres unmarked) [Example 2, (2′-oxospiro[furo[2,3-f][1,3]benzodioxole-7,3′-indol]-1′(2′H)-yl)acetic acid] and `NCCN1C(=O)C2(COc3cc4c(cc32)OCO4)c2ccccc21` (centres unmarked) [Example 18, 1′-(2-aminoethyl)spiro[furo[2,3-f][1,3]benzodioxole-7,3′-indol]-2′(1′H)-one] cannot be ordered by IC50: greater than 1000 nM for the first, greater than 1000 nM for the second.

Compared with `O=C(CN1C(=O)C2(COc3cc4c(cc32)OCO4)c2ccccc21)NCc1ccc(Cl)cc1` (centres unmarked) [Example 3, N-(4-chlorobenzyl)-2-(2′-oxospiro[furo[2,3-f][1,3]benzodioxole-7,3′-indol]-1′(2′H)-yl)acetamide], `O=C(O)c1ccc(CN2C(=O)C3(COc4cc5c(cc43)OCO5)c3ccccc32)cc1` (centres unmarked) [Example 11, 4-[(2′-oxospiro[furo[2,3-f][1,3]benzodioxole-7,3′-indol]-1′(2′H)-yl)methyl]benzoic acid] is higher in IC50: 100 to 1000 nM for the first, greater than 1000 nM for the second.

`CCCCCN1C(=O)C2(COc3cc4c(cc32)OCO4)c2c(-c3ccc(N(C)C)nc3)cccc21` (centres unmarked) [Example 4, 4′-[6-(dimethylamino)pyridin-3-yl]-1′-pentylspiro[furo[2,3-f][1,3]benzodioxole-7,3′-indol]-2′(1′H)one] and `CCCCCN1C(=O)C2(COc3cc4c(cc32)OCO4)c2c(Nc3ccc(OC)nc3)cccc21` (centres unmarked) [Example 5, 4′-[(6-methoxypyridin-3-yl)amino]-1′-pentylspiro[furo[2,3-f][1,3]benzodioxole-7,3′-indol]-2′(1′H)-one] fall in the same range of IC50: 100 to 1000 nM for the first, 100 to 1000 nM for the second.

Compared with `O=C(O)c1ccccc1CN1C(=O)C2(COc3cc4c(cc32)OCO4)c2ccccc21` (centres unmarked) [Example 6, 2-[(2′-oxospiro[furo[2,3-f][1,3]benzodioxole-7,3′-indol]-1′(2′H)-yl)methyl]benzoic acid], `O=C(O)c1cccc(CN2C(=O)C3(COc4cc5c(cc43)OCO5)c3ccccc32)c1` (centres unmarked) [Example 8, 3-[(2′-oxospiro[furo[2,3-f][1,3]benzodioxole-7,3′-indol]-1′(2′H)-yl)methyl]benzoic acid] is lower in IC50: greater than 1000 nM for the first, 100 to 1000 nM for the second.

`O=C(NCCc1ccc(Cl)cc1)c1ccccc1CN1C(=O)C2(COc3cc4c(cc32)OCO4)c2ccccc21` (centres unmarked) [Example 7, N-[2-(4-chlorophenyl)ethyl]-2-[(2′-oxospiro[furo[2,3-f][1,3]benzodioxole-7,3′-indol]-1′(2′H)-yl)methyl]benzamide] and `O=C(NCCc1cccc(Cl)c1)c1cccc(CN2C(=O)C3(COc4cc5c(cc43)OCO5)c3ccccc32)c1` (centres unmarked) [Example 9, N-[2-(3-chlorophenyl)ethyl]-3-[(2′-oxospiro[furo[2,3-f][1,3]benzodioxole-7,3′-indol]-1′(2′H)-yl)methyl]benzamide] fall in the same range of IC50: 100 to 1000 nM for the first, 100 to 1000 nM for the second.

Compared with `O=C1N(Cc2ccc(F)cc2)c2ccccc2C12COc1cc3c(cc12)OCO3` (centres unmarked) [Example 10, 1′-(4-fluorobenzyl)spiro[furo[2,3-f][1,3]benzodioxole-7,3′-indol]-2′(1′H)-one], `O=C(NCCN1C(=O)C2(COc3cc4c(cc32)OCO4)c2ccccc21)Nc1ccc(F)cc1` (centres unmarked) [Example 19, 1-(4-fluorophenyl)-3-[2-(2′-oxospiro[furo[2,3-f][1,3]benzodioxole-7,3′-indol]-1′(2′H)-yl)ethyl]urea] is higher in IC50: 10 to 100 nM for the first, greater than 1000 nM for the second. The first is the more potent here.

First: O=C(Nc1cccc(F)c1)c1ccc(CN2C(=O)C3(COc4cc5c(cc43)OCO5)c3ccccc32)cc1 (centres unmarked) [Example 12, N-(3-fluorophenyl)-4-[(2′-oxospiro[furo[2,3-f][1,3]benzodioxole-7,3′-indol]-1′(2′H)-yl)methyl]benzamide]
Second: O=C(NCCCN1C(=O)C2(COc3cc4c(cc32)OCO4)c2ccccc21)c1sccc1Cl (centres unmarked) [Example 17, 3-chloro-N-[3-(2′-oxospiro[furo[2,3-f][1,3]benzodioxole-7,3′-indol]-1′(2′H)-yl)propyl]thiophene-2-carboxamide]
The IC50 of the first is higher: 100 to 1000 nM for the first, 10 to 100 nM for the second. The second is the more potent here.

First: O=C1N(CCCO)c2ccccc2C12COc1cc3c(cc12)OCO3 (centres unmarked) [Example 13, 1′-(3-hydroxypropyl)spiro[furo[2,3-f][1,3]benzodioxole-7,3′-indol]-2′(1′H)-one]
Second: NCCCN1C(=O)C2(COc3cc4c(cc32)OCO4)c2ccccc21 (centres unmarked) [Example 16, 1′-(3-aminopropyl)spiro[furo[2,3-f][1,3]benzodioxole-7,3′-indol]-2′(1′H)-one]
The IC50 of the first is lower: 10 to 100 nM for the first, greater than 1000 nM for the second.

`O=C1N(CCCNCC2CC2)c2ccccc2C12COc1cc3c(cc12)OCO3` (centres unmarked) [Example 15, 1′-{3-[(cyclopropylmethyl)amino]propyl}spiro[furo[2,3-f][1,3]benzodioxole-7,3′-indol]-2′(1′H)-one] and `CCCCCN1C(=O)C2(CC(O)c3cc4c(cc32)OCO4)c2ccccc21` (centres unmarked) [Example 26, 7-hydroxy-1′-pentyl-6,7-dihydrospiro[indeno[5,6-d][1,3]dioxole-5,3′-indol]-2′(1′H)-one] cannot be ordered by IC50: greater than 1000 nM for the first, greater than 1000 nM for the second.

`CCCCCN1C(=O)C2(CC(=O)c3cc4c(cc32)OCO4)c2ccccc21` (centres unmarked) [Example 21, 1′-pentylspiro[indeno[5,6-d][1,3]dioxole-5,3′-indole]-2′,7(1′H,6H)-dione] and `CCCCCN1C(=O)C2(CCC(=O)c3cc4c(cc32)OCO4)c2ccccc21` (centres unmarked) [Example 22, 1-pentyl-6′H-spiro[indole-3,5′-naphtho[2,3-d][1,3]dioxole]-2,8′(1′H,7′H)-dione] fall in the same range of IC50: 1 to 10 nM for the first, 1 to 10 nM for the second.

Compared with `CCCCCN1C(=O)C2(CCc3cc4c(cc32)OCO4)c2ccccc21` (centres unmarked) [Example 23, 1′-pentyl-6,7-dihydrospiro[indeno[5,6-d][1,3]dioxole-5,3′-indol]-2′(1′H)-one], `CCCCCN1C(=O)C2(CCCc3cc4c(cc32)OCO4)c2ccccc21` (centres unmarked) [Example 24, 1-pentyl-7′,8′-dihydro-6′H-spiro[indole-3,5′-naphtho[2,3-d][1,3]dioxol]-2(1H)-one] is lower in IC50: 100 to 1000 nM for the first, 1 to 10 nM for the second. The second is the more potent here.

`CCCCCN1C(=O)C2(CC(OC)c3cc4c(cc32)OCO4)c2ccccc21` (centres unmarked) [Example 27, 7-methoxy-1′-pentyl-6,7-dihydrospiro[indeno[5,6-d][1,3]dioxole-5,3′-indol]-2′(1′H)-one] and `CCCCCN1C(=O)C2(CNC(=O)c3cc4c(cc32)OCO4)c2ccccc21` (centres unmarked) [Example 28, 1′-pentyl-6,7-dihydro-5H-spiro[1,3-dioxolo[4,5-d]isoquinoline-8,3′-indole]-2′,5(1′H)-dione] cannot be ordered by IC50: greater than 1000 nM for the first, greater than 1000 nM for the second.

`CCCCCN1C(=O)C2(COc3cc4c(cc32)OCO4)c2c(C(=O)Nc3ccccn3)cccc21` (centres unmarked) [Example 29, 2′-oxo-1′-pentyl-N-pyridin-2-yl-1′,2′-dihydrospiro[furo[2,3-f][1,3]benzodioxole-7,3′-indole]-4′-carboxamide] and `CCCCCCN1C(=O)C2(CC(=O)Oc3cc4c(cc32)OCO4)c2ccccc21` (centres unmarked) [Example 31, 1′-hexylspiro[1,3-dioxolo[4,5-g]chromene-8,3′-indole]-2′,6(1′H,7H)-dione] cannot be ordered by IC50: greater than 1000 nM for the first, greater than 1000 nM for the second.

First: CCCCCN1C(=O)C2(COc3ccccc32)c2ccccc21 (centres unmarked) [Example 32, 1′-pentylspiro[1-benzofuran-3,3′-indol]-2′(1′H)-one]
Second: CCCCCN1C(=O)C2(COc3cc(Nc4ccccc4)ccc32)c2ccccc21 (centres unmarked) [Example 33, 6-anilino-1′-pentylspiro[1-benzofuran-3,3′-indol]-2′(1′H)-one]
The IC50 of the first is lower: 10 to 100 nM for the first, greater than 1000 nM for the second.

For `CCCCCN1C(=O)C2(COc3cc(N4CCOCC4)ccc32)c2ccccc21` (centres unmarked) [Example 34, 6-morpholin-4-yl-1′-pentylspiro[1-benzofuran-3,3′-indol]-2′(1′H)-one], the IC50 was greater than 1000 nM.

System: not given
Assay: not given

First: CCCCCN1C(=O)C2(COc3cc4c(cc32)OCO4)c2c(C(=O)Nc3cccc(OC)c3)cccc21 (centres unmarked) [Example 29.1, N-(3-methoxyphenyl)-2′-oxo-1′-pentyl-1′,2′-dihydrospiro[furo[2,3-f][1,3]benzodioxole-7,3′-indole]-4′-carboxamide]
Second: O=C1N(Cc2nc3cc(F)ccc3[nH]2)c2ccccc2C12COc1cc3c(cc12)OCO3 (centres unmarked) [Example 53, 1′-[(5-fluoro-1H-benzimidazol-2-yl)methyl]spiro[furo[2,3-f][1,3]benzodioxole-7,3′-indol]-2′(1′H)-one]
The melting point of the first is higher: 173 to 175 °C for the first, 138 to 142 °C for the second.

`COc1ccc2c(c1)C1(CO2)C(=O)N(C)c2ccccc21` (centres unmarked) [Example 58, 5-methoxy-1′-methylspiro[1-benzofuran-3,3′-indol]-2′(1′H)one] gave a melting point of 159 to 161 °C.

Source: patent publication US8466188B2, “Use of spiro-oxindole compounds as therapeutic agents” (Xenon Pharmaceuticals Inc., priority 2006, dated 2013)
